Test results reported in patent US11364275B2, “Linear lipopeptide paenipeptins and methods of using the same” (priority 2017, dated 2022).
Like-named read-outs stand apart in the source and are kept apart here. Where a SMILES comes first, the peptide text is derived from it. [ ]: non-standard residue; d: D form. The star is where a group is joined. ξ: configuration not given here. Thr(3ξ) = CC(O)[C@H](N)C(=O)O; Decanoyl = CCCCCCCCCC(=O)*; Heptanoyl = CCCCCCC(=O)*; Octanoyl = CCCCCCCC(=O)*; Orn = NCCC[C@H](N)C(=O)O; Dab = NCC[C@H](N)C(=O)O; ξDab = NCCC(N)C(=O)O; Bz = O=C(c1ccccc1)*

Experiments:
[1] = test system: Acinetobacter baumannii ATCC 19606; experiment: MIC of antibiotics with or without paenipeptin analogues (potentiation); format: cell-based; settings: A. baumannii ATCC 19606; for MIC of antibiotic at 0 μg/ml paenipeptin analogue: antibiotic alone; for Sensitization factor (rifampicin): MIC without / with 4 μg/mL paenipeptin
From the text: (§1) Gram-negative bacteria, including Acinetobacter and Klebsiella, are intrinsically resistant to the hydrophobic antibiotic rifampicin.

[2] = test system: Klebsiella pneumoniae ATCC 13883; experiment: as above; format: cell-based; settings: K. pneumoniae ATCC 13883; for MIC of antibiotic at 0 μg/ml paenipeptin analogue: antibiotic alone; for Sensitization factor (rifampicin): MIC without / with 4 μg/mL paenipeptin
From the text: as §1

[3] = test system: Acinetobacter baumannii ATCC 19606; format: cell-based
[4] = test system: Klebsiella pneumoniae ATCC 13883; format: cell-based
Method: (§2) The minimum inhibitory concentration (MIC) of paenipeptin analogues was determined using the broth microdilution method (Wirker, M. A. Methods for Dilution Antimicrobial Susceptibility Tests for Bacteria that Grow Aerobically: Approved Standard M07-A8; Clinical and Laboratory Standards Institute, Wayne, Pa., 2009). Seven reference strains (Acinetobacter baumannii ATCC 19606, Escherichia coli ATCC 25922, Klebsiella pneumoniae ATCC 13883, Pseudomonas aeruginosa ATCC 27853, Enterococcus faecium ATCC 19434, Staphylococcus aureus ATCC 29213 and methicillin-resistant S. aureus ATCC 43300) were subjected to MIC testing.
(§3) Paenipeptin analogues were two-fold diluted in tryptic soy broth (TSB; Becton Dickinson) and mixed with an equal volume of bacterial suspensions in TSB containing approximately 1.5×10^5 colony-forming units (CFU)/mL in a clear UV-sterilized 96-well microtiter plate (NBS, Corning Inc., Corning, N.Y.). […] The microtiter plate was incubated at 37° C. for 18-20 h.

[5] = test system: Enterococcus faecium ATCC 19434; format: cell-based
Method: as §2, §3

[6] = test system: Staphylococcus aureus ATCC 29213; format: cell-based
Method: as §2, §3

[7] = test system: methicillin-resistant S. aureus ATCC 43300; format: cell-based, Staphylococcus aureus
Method: as §2, §3

rabbit red blood cells = experiment: Hemolytic activity; format: cell-based; settings: for Hemolysis: relative to Triton X-100
Method: Hemolytic activity was evaluated using defibrinated rabbit blood in a 96-well plate as described previously. A nonionic surfactant Triton X-100, which is capable of lysing red blood cells (RBCs), was used at 0.1% as a positive control. Briefly, rabbit blood (Hardy Diagnostics, Santa Maria, Calif.) was diluted with phosphate buffered saline (PBS; pH 7.2) at a 1:19 ratio (v/v) and free hemoglobin was removed by washing RBCs and centrifugation four times at 1,000×g at 4° C. for 5 min. Aliquots (50 μL) of washed RBCs were incubated with 150 μL two-fold dilutions of paenipeptin analogues at final concentrations of 16-128 μg/mL at 37° C. for 30 min in a microtiter plate (NBS, Corning Inc.). After incubation, treated RBCs were gently mixed by repeated pipetting. Aliquots (20 μL) of the cell suspension were mixed with 200 μL PBS in a new 96-well plate and centrifuged at 2,204×g for 10 min. The supernatant was transferred to a new 96-well plate for absorbance measurement at 415 nm using a Cell Imaging Multimode Reader (Cytation 3, BioTek; Winooski, Vt.). The percent hemolysis observed after exposure to each paenipeptin analogue was calculated relative to Triton X-100.

[8] = test system: Escherichia coli ATCC 25922; format: cell-based
Method: as §2, §3

[9] = test system: Pseudomonas aeruginosa ATCC 27853; format: cell-based

| Structure (SMILES) | MIC of antibiotic at 0 μg/ml paenipeptin analogue [1] | MIC of antibiotic at 0 μg/ml paenipeptin analogue [2] | MIC ([3]; ATCC 19606) | MIC ([4]; ATCC 13883) | MIC ([5]; ATCC 19434) | MIC ([6]; ATCC 29213) | MIC ([7]; ATCC 43300) | Hemolysis (rabbit red blood cells; 16 μg/mL) | Hemolysis (rabbit red blood cells; 32 μg/mL) | Hemolysis (rabbit red blood cells; 64 μg/mL) | Hemolysis (rabbit red blood cells; 128 μg/mL) | MIC of rifampicin at 2 μg/mL of paenipeptin analogue [1] | MIC of rifampicin at 4 μg/mL of paenipeptin analogue [1] | Sensitization factor (rifampicin) [1] | MIC of rifampicin at 2 μg/mL of paenipeptin analogue [2] | MIC of rifampicin at 4 μg/mL of paenipeptin analogue [2] | Sensitization factor (rifampicin) [2] | MIC ([8]; ATCC 25922) | MIC ([9]; ATCC 27853) | further results |
| --- | --- | --- | --- | --- | --- | --- | --- | --- | --- | --- | --- | --- | --- | --- | --- | --- | --- | --- | --- | --- |
| CC1(C)S[C@@H]2[C@H](NC(=O)[C@H](N)c3ccccc3)C(=O)N2[C@H]1C(=O)O [Ampicillin, ampicillin, reference compound] | >32 μg/ml | 32 μg/ml |  |  |  |  |  |  |  |  |  |  |  |  |  |  |  |  |  |  |
| CCCCCCC(=O)N[C@@H](CCN)C(=O)N[C@H](C(=O)N[C@@H](CCN)C(=O)N[C@H](Cc1ccccc1)C(=O)N[C@@H](CC(C)C)C(=O)N[C@@H](CCN)C(=O)N[C@@H](C(=O)N[C@@H](CC(C)C)C(=O)N[C@@H](CO)C(N)=O)C(C)C)C(C)C [Analogue 2] (Heptanoyl-[Dab]V[Dab][dF]L[Dab][dV]LS-NH2) |  |  | >32 µg/mL | >32 µg/mL | >32 µg/mL | >32 µg/mL | >32 µg/mL | −0.17 ± 0.19% | 0.32 ± 0.74% | 0.79 ± 0.63% | 0.95 ± 0.45% | 0.125 μg/ml | 0.0313-0.0625 μg/ml | 256-512 | 0.0156 μg/ml | 0.0039 μg/ml | 4,096 |  |  |  |
| CCCCCCC(=O)N[C@@H](CCN)C(=O)N[C@H](C(=O)N[C@@H](CCN)C(=O)N[C@H](Cc1ccccc1)C(=O)N[C@@H](CC(C)C)C(=O)N[C@@H](CCN)C(=O)N[C@@H](C(=O)N[C@@H](CC(C)C)C(=O)N[C@@H](CO)C(N)=O)C(C)C)[C@@H](C)CC [Analogue 3] (Heptanoyl-[Dab]I[Dab][dF]L[Dab][dV]LS-NH2) |  |  | >32 µg/mL |  | >32 µg/mL | >32 µg/mL | >32 µg/mL | 0.18 ± 0.54% | 0.78 ± 0.30% | 1.18 ± 0.68% | 1.77 ± 0.81% | 0.0078 μg/ml |  | 4,096 | 0.0039 μg/ml | <0.00098-0.00195 μg/ml |  |  |  | hemolytic activity (in words) (rabbit red blood cells; 128 μg/mL): little hemolysis |
| CCCCCCC(=O)N[C@@H](CCN)C(=O)N[C@@H](Cc1ccccc1)C(=O)N[C@@H](CCN)C(=O)N[C@H](Cc1ccccc1)C(=O)N[C@@H](CC(C)C)C(=O)N[C@@H](CCN)C(=O)N[C@@H](C(=O)N[C@@H](CC(C)C)C(=O)N[C@@H](CO)C(N)=O)C(C)C [Analogue 4] (Heptanoyl-[Dab]F[Dab][dF]L[Dab][dV]LS-NH2) |  |  |  |  | >32 µg/mL | ≥32 µg/mL |  | 0.28 ± 1.11% | 0.49 ± 1.22% | 0.60 ± 1.35% | 1.28 ± 1.65% |  |  |  |  |  |  | 1 to 4 µg/mL | 2 to 4 µg/mL |  |
| CCCCCCCC(=O)N[C@@H](CCN)C(=O)NC(CCN)C(=O)N[C@@H](CCN)C(=O)N[C@H](Cc1ccccc1)C(=O)N[C@@H](CC(C)C)C(=O)N[C@@H](CCN)C(=O)N[C@@H](C(=O)N[C@@H](CC(C)C)C(=O)N[C@@H](CCN)C(N)=O)C(C)C (some centres unmarked) [Analogue 10] (Octanoyl-[Dab][ξDab][Dab][dF]L[Dab][dV]L[Dab]-NH2) |  |  | >32 µg/mL | >32 µg/mL | >32 µg/mL | ≥32 µg/mL | >32 µg/mL | 0.37 ± 0.62% | 0.38 ± 0.62% | 0.41 ± 0.53% | 0.80 ± 0.40% |  | 0.0313-0.0625 μg/ml | 256-512 | 0.0625-0.125 μg/ml | 0.0625 μg/ml | 256 | >32 µg/mL | 16 to 32 µg/mL |  |
| CCCCCCCC(=O)N[C@@H](CCCN)C(=O)N[C@H](C(=O)N[C@@H](CCCN)C(=O)N[C@H](Cc1ccccc1)C(=O)N[C@@H](CC(C)C)C(=O)N[C@@H](CCCN)C(=O)N[C@@H](C(=O)N[C@@H](CC(C)C)C(=O)N[C@@H](CO)C(N)=O)C(C)C)[C@@H](C)CC [Analogue 11] (Octanoyl-[Orn]I[Orn][dF]L[Orn][dV]LS-NH2) |  |  |  | >32 µg/mL | >32 µg/mL | >32 µg/mL |  | 0.86 ± 0.72% | 0.44 ± 0.30% | 0.69 ± 0.64% | 1.12 ± 0.47% | 0.0625 μg/ml | 0.0156-0.0313 μg/ml | 512-1,024 |  | 0.0078-0.0156 μg/ml | 1,024-2,048 |  |  |  |
| CCCCCCCCCC(=O)N[C@@H](CCN)C(=O)N[C@H](C(=O)N[C@H](C(=O)N[C@H](CC(C)C)C(=O)N[C@@H](CC(C)C)C(=O)N[C@@H](CCN)C(=O)N[C@@H](C(=O)N[C@@H](CC(C)C)C(=O)N[C@@H](CO)C(N)=O)C(C)C)C(C)O)[C@@H](C)CC (stereo partly drawn) [Analogue 13] (Decanoyl-[Dab]I[Thr(3ξ)][dL]L[Dab][dV]LS-NH2) |  |  | >32 µg/mL | >32 µg/mL | ≥32 µg/mL | >32 µg/mL | >32 µg/mL | 1.25 ± 0.71% | 5.06 ± 1.14% | 10.0 ± 1.03% | 24.9 ± 2.71% | >0.125 μg/ml | >0.125 μg/ml |  | >0.125 μg/ml | >2 μg/ml |  | >32 µg/mL | >32 µg/mL |  |
| CC[C@H](C)[C@H](NC(=O)[C@H](CCN)NC(=O)c1ccccc1)C(=O)N[C@@H](CCN)C(=O)N[C@H](Cc1ccccc1)C(=O)N[C@@H](CC(C)C)C(=O)N[C@@H](CCN)C(=O)N[C@@H](C(=O)N[C@@H](CC(C)C)C(=O)N[C@@H](CO)C(N)=O)C(C)C [Analogue 14] (Bz-[Dab]I[Dab][dF]L[Dab][dV]LS-NH2) |  |  |  |  |  |  |  | 0.22 ± 0.17% | 0.71 ± 0.82% | 1.14 ± 1.05% | 0.70 ± 0.34% | 0.03125 μg/ml |  | 2,048-4,096 | 0.0078 μg/ml | 0.00195-0.0039 μg/ml | 4,096-8,192 |  |  | MIC ([3]; A. baumannii ATCC 19606, TSB): >32 µg/mL; MIC ([8]; E. coli ATCC 25922, TSB): 16 to 32 µg/mL; MIC ([4]; K. pneumoniae ATCC 13883, TSB): >32 µg/mL; MIC ([9]; P. aeruginosa ATCC 27853, TSB): 8 to 32 µg/mL; MIC ([5]; E. faecium ATCC 19434, TSB): >32 µg/mL; MIC ([6]; S. aureus ATCC 29213, TSB): >32 µg/mL; MIC ([7]; S. aureus ATCC 43300, TSB): >32 µg/mL |
| CC[C@H]1OC(=O)[C@H](C)[C@@H](O[C@H]2C[C@@](C)(OC)[C@@H](O)[C@H](C)O2)[C@H](C)[C@@H](O[C@@H]2O[C@H](C)C[C@H](N(C)C)[C@H]2O)[C@](C)(O)C[C@@H](C)C(=O)[C@H](C)[C@@H](O)[C@]1(C)O [Erythromycin, erythromycin, reference compound] | 32 μg/ml | >32 μg/ml |  |  |  |  |  |  |  |  |  |  |  |  |  |  |  |  |  |  |
| CN[C@H](CC(C)C)C(=O)N[C@H]1C(=O)N[C@@H](CC(N)=O)C(=O)N[C@H]2C(=O)N[C@H]3C(=O)N[C@H](C(=O)N[C@H](C(=O)O)c4cc(O)cc(O)c4-c4cc3ccc4O)[C@H](O)c3ccc(c(Cl)c3)Oc3cc2cc(c3O[C@@H]2O[C@H](CO)[C@@H](O)[C@H](O)[C@H]2O[C@H]2C[C@](C)(N)[C@H](O)[C@H](C)O2)Oc2ccc(cc2Cl)[C@H]1O [Vancomycin, vancomycin, reference compound] | >32 μg/ml | >32 μg/ml |  |  |  |  |  |  |  |  |  |  |  |  |  |  |  |  |  |  |
